For the test, the system named is Methionine aminopeptidase-2. Kind of test: cell resolved thermal shift assay (FACS sorting, heating, Western blot). Format: cell-based, mouse. The following applies: TNP-470 final concentration 2 μM for one hour; mixed cells FACS sorted; heated 44 to 52° C.; MetAP-2 Western blot; FIG. 3.

Structures are written as SMILES.

Procedure: Human cancer cell line K562 and mouse fibrosarcoma cell line T241 with endogenous expression of GFP, were cultured to short-term passages (3-15) in an incubator chamber. The T241 cells were treated with the MetAP-2 inhibitor TNP-470 (final concentration 2 μM) for one hour in the incubator chamber. Following incubation, the cells were washed by repeated centrifugation to pellet cells and re-dissolve in PBS. After this step, the cells were pooled into a PBS buffer. This mix of cells was then subjected to FACS sorting using a MoFlo XDP from Beckman Coulter. Cells were either sorted by their GFP fluorescence (T241) or by the lack of fluorescence (K562). The sorted cells were then aliquoted in 8 tube PCR strips and subjected to heating to temperatures ranging from 44 to 52° C. with two degree increments. After heating, the cells were snap frozen in N2 (I) and freeze thawed. The resulting cell debris together with precipitated protein was pelleted by centrifugation at 20000*g for 20 minutes. The supernatants, containing various amount of the target protein (MetAP-2) were subjected to standard SDS-Page and Western blot analysis using a specific primary MetAP-2 antibody (Santa Cruz Biotechnology SC-365637) at 1:400 dilution in non-fat dietary milk.

For `CO[C@@H]1[C@H](OC(=O)NC(=O)CCl)CC[C@]2(CO2)[C@H]1[C@@]1(C)O[C@@H]1CC=C(C)C` [TNP-470], the “stabilisation of the target protein Methionine aminopeptidase-2 (dark band shows presence of heat stabilised protein)” value was “stabilisation”.

These data come from patent US11480578B2, “Method for identifying a biomarker indicative of a reduced drug response using a thermal shift assay” (Pelago Bioscience AB, priority 2014, dated 2022).
